In test [1] the target is Serine/threonine-protein kinase pim-2 (Homo sapiens, UniProt Q9P1W9). Put plainly: Inhibition of Pim2 (unknown origin) using luciferase-luciferin based ATP detection reagent by Kinase-Glo assay. (In general: Kinase-Glo reads ATP consumption through a luciferase reaction.)
The target in test [2] is T1, Receptor-type tyrosine-protein kinase FLT3 (Homo sapiens, UniProt P36888).
T1 sequence (P36888 whole entry): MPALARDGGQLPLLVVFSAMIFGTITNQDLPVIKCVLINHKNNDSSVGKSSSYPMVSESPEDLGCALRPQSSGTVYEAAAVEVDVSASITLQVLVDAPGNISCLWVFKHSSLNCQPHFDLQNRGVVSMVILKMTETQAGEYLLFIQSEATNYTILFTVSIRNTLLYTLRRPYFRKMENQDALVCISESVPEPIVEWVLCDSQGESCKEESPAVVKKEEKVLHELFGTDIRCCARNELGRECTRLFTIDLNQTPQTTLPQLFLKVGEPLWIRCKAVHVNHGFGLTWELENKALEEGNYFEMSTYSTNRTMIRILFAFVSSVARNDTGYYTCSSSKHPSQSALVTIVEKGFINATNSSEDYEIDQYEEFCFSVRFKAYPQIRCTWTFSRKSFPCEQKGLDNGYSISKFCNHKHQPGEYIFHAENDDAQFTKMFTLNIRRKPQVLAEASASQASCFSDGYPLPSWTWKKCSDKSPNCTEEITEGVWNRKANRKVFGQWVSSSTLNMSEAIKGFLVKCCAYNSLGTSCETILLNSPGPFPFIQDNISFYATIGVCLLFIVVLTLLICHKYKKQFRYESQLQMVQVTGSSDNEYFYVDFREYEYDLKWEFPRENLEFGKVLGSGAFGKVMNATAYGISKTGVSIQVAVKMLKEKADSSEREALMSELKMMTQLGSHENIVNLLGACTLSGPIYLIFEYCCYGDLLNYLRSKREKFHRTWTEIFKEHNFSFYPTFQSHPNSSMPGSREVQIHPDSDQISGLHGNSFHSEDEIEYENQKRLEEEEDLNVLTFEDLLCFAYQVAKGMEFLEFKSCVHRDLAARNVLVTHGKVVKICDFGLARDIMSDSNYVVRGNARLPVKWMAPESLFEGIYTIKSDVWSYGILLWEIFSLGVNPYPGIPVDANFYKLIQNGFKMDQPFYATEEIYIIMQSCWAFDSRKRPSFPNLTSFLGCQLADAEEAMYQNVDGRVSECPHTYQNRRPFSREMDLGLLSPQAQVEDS
Description: Inhibition of human Flt3 (unknown origin).

Test [3] deals with Serine/threonine-protein kinase pim-1 (Homo sapiens, UniProt P11309). Put plainly: Inhibition of Pim1 (unknown origin) using luciferase-luciferin based ATP detection reagent by Kinase-Glo assay.
Chain of Serine/threonine-protein kinase pim-1 (P11309 whole entry): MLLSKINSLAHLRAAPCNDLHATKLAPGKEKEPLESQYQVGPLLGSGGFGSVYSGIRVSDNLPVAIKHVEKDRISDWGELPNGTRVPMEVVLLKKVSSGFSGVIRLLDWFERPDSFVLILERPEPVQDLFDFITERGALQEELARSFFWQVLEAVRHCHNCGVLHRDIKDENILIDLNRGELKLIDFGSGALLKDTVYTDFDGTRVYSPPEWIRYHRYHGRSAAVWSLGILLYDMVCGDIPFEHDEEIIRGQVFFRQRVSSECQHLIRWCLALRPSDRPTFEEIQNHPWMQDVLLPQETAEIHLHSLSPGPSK
The target of test [4] is Voltage-gated inwardly rectifying potassium channel KCNH2 (Homo sapiens, UniProt Q12809). Put plainly: Inhibition of human ERG expressed in CHO cells by automated patch clamp method. Type of test: cell-based. Background: The patch-clamp technique gives a direct electrical read-out from membranes.
Chain of Voltage-gated inwardly rectifying potassium channel KCNH2 (Q12809 whole entry): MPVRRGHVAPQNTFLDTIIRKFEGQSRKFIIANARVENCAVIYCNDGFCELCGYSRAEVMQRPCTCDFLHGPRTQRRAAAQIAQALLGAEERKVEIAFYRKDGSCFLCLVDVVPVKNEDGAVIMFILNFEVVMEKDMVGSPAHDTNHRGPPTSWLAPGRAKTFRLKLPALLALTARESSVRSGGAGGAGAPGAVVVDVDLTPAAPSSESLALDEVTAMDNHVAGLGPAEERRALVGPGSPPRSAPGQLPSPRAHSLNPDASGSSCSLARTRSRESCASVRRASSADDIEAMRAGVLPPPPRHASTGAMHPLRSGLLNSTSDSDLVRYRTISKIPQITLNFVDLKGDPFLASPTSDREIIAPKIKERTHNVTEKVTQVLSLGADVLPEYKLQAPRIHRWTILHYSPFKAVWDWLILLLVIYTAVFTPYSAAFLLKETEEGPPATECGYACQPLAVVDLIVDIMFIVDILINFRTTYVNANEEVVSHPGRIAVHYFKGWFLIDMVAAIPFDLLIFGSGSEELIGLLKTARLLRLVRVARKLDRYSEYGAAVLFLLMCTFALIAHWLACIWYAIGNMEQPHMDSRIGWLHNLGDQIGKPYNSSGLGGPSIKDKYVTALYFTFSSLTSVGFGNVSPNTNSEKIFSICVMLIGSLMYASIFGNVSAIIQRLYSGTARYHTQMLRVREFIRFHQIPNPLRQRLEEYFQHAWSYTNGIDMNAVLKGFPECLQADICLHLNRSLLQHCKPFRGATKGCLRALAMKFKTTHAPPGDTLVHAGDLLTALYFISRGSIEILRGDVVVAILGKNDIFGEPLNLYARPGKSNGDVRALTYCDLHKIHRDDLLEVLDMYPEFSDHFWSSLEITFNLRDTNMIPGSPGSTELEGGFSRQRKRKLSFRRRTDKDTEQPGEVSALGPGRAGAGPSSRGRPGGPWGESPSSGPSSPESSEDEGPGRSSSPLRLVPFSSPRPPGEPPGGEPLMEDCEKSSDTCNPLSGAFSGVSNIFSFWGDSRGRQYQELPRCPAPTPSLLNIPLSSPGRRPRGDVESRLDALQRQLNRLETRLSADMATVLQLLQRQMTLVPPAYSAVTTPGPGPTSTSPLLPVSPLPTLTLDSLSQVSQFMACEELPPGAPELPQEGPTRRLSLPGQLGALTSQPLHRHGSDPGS

Chain of Serine/threonine-protein kinase pim-2 (Q9P1W9 whole entry): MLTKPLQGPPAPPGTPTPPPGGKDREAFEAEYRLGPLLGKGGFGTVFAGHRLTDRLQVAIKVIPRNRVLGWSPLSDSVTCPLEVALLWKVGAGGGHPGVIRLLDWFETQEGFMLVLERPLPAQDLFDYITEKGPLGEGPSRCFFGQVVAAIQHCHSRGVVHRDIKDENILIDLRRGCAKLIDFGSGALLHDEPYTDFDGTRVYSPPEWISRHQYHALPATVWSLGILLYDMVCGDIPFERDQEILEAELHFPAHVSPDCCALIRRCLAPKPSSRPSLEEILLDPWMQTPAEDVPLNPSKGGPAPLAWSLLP

Usually IC50 stands for the point on the concentration scale where inhibition reaches its midpoint. Consider `O[C@H]1CC[C@H](Nc2ccn3ncc(-c4cccc(Cl)c4)c3n2)CC1`, for which the IC50 in test [1] (read-out: IC50) is 506 nM.
Still for that read-out and setting: as for `CO[C@H]1CC[C@H](Nc2ccn3ncc(-c4cccc(Cl)c4)c3n2)CC1`, the figure is 1020 nM; as for `O=S1(=O)CCC(CNc2ccn3ncc(-c4cccc(C(F)(F)F)c4)c3n2)CC1`, 6020 nM; as for `C[C@]1(O)CC[C@H](Nc2ccn3ncc(-c4cccc(OC(F)(F)F)c4)c3n2)CC1`, 2040 nM.
Turning to `O=S1(=O)CCC(CNc2ccn3ncc(-c4cccc(Cl)c4)c3n2)CC1`, in test [1] (read-out: IC50), the IC50 came out at 2070 nM.
In the case of `CC(C)(O)[C@H]1CC[C@H](Nc2ccn3ncc(-c4cccc(OC(F)(F)F)c4)c3n2)CC1`, the IC50 in test [1] (read-out: IC50) was 4090 nM.
Regarding `O[C@H]1CC[C@H](Nc2ccn3ncc(-c4cccc(OC(F)(F)F)c4)c3n2)CC1`, the IC50 is 269 nM in test [1] (read-out: IC50) and 157 nM in test [2].
Regarding `FC(F)(F)c1cccc(-c2cnn3ccc(NCC4CCOCC4)nc23)c1`, the half-inhibitory concentration (IC50) in test [3] (read-out: IC50) is 149 nM; in test [1] (read-out: IC50), 1970 nM.
Taken in the same sequence, the figures for `FC(F)(F)Oc1cccc(-c2cnn3ccc(NCC4CCOCC4)nc23)c1` were 633 nM and 3730 nM.
In the case of `CC(C)(O)[C@H]1CC[C@H](Nc2ccn3ncc(-c4cccc(C(F)(F)F)c4)c3n2)CC1`, the concentration for half-maximal inhibition (IC50) in test [4] was above 30000 nM; in test [1] (read-out: IC50) it was 525 nM; in test [2], 271 nM.
As to `CN1CCC(CNc2ccn3ncc(-c4cccc(OC(F)(F)F)c4)c3n2)CC1`, the concentration for half-maximal inhibition (IC50) in test [1] (read-out: IC50) came out at 1490 nM.
Still for that read-out and setting: as for `O=S1(=O)CCC(CNc2ccn3ncc(-c4cccc(OC(F)(F)F)c4)c3n2)CC1`, the figure is 8160 nM.
Take `N[C@H]1CC[C@H](Nc2ccn3ncc(-c4cccc(Cl)c4)c3n2)CC1`: the half-inhibitory concentration (IC50) in test [1] (read-out: IC50) is 732 nM.
For the molecule `N[C@H]1CC[C@H](Nc2ccn3ncc(-c4cccc(OC(F)(F)F)c4)c3n2)CC1`, the IC50 in test [1] (read-out: IC50) was 100 nM.
With `C[C@]1(O)CC[C@H](Nc2ccn3ncc(-c4cccc(C(F)(F)F)c4)c3n2)CC1`, the IC50 in test [1] (read-out: IC50) stood at 639 nM.
As to `CO[C@H]1CC[C@H](Nc2ccn3ncc(-c4cccc(C(F)(F)F)c4)c3n2)CC1`, the IC50 in test [1] (read-out: IC50) came out at 4660 nM.
Regarding `O=S1(=O)CCC(Nc2ccn3ncc(-c4cccc(C(F)(F)F)c4)c3n2)CC1`, the IC50 entry in test [3] and in test [1] was “Not Active” each time.
For `N[C@H]1CCCN(c2ccn3ncc(-c4cccc(OC(F)(F)F)c4)c3n2)C1`, the IC50 in test [1] (read-out: IC50) was found to be 987 nM.
Same read-out and setting: as for `CO[C@H]1CC[C@H](Nc2ccn3ncc(-c4cccc(OC(F)(F)F)c4)c3n2)CC1`, the figure is 3620 nM.
With `N[C@H]1CCCN(c2ccn3ncc(-c4cccc(Cl)c4)c3n2)C1`, the half-maximal inhibitory concentration (IC50) in test [1] (read-out: IC50) worked out at 2000 nM.
As to `O=C1CCN(c2ccn3ncc(-c4cccc(Cl)c4)c3n2)CC1`, the figures for the IC50 in test [3] (read-out: IC50) and in test [1] (read-out: IC50) were 168 nM and 564 nM, respectively.
`O[C@H]1CC[C@H](Nc2ccn3ncc(-c4cccc(C(F)(F)F)c4)c3n2)CC1`: the IC50 in test [1] (read-out: IC50) was 282 nM; in test [2], 53 nM.
Turning to `C[C@]1(O)CC[C@H](Nc2ccn3ncc(-c4cccc(Cl)c4)c3n2)CC1`, the IC50 in test [1] (read-out: IC50) was 1260 nM.
Same read-out and setting: as for `Clc1cccc(-c2cnn3ccc(NCC4CCOCC4)nc23)c1`, the figure is 1640 nM.

For the origin of these results see ChEMBL document CHEMBL3351833, “Synthesis and Biological Evaluation of Pyrazolo[1,5-a]pyrimidine Compounds as Potent and Selective Pim-1 Inhibitors” (ACS Med Chem Lett, 2015).
